Test results published in US20120064219A1, “EXTRUDED PARTICLES” (Firmenich SA, priority 2009, published 2012).
Peptide text beside a SMILES is read from it.

Test: LC-MS analysis of saliva samples of panelists chewing the gums
Format: in vivo
Method: 3 panelists were given various samples of chewing gum prepared above and instructed to chew the gums for 60 minutes. At various intervals, a saliva sample was taken from each panelist, diluted 50 times in water and then analysed by standard LC-MS to confirm the amount of sweetening component remaining in the mouth.

[1] = encapsulated form in chewing gum

| Compound | effect of encapsulation on the release profile compared to the unencapsulated form (chewing gum, saliva) | release profile in saliva (in words) [1] | release profile in saliva (in words) (unencapsulated form in chewing gum) |
| --- | --- | --- | --- |
| CC1=CC(=O)[N-]S(=O)(=O)O1.[K+] [Acesulfame K] | little effect | – | – |
| COC(=O)[C@H](Cc1ccccc1)NC(=O)[C@@H](N)CC(=O)O [aspartame] (H-Asp-Phe-OMe) | – | releasing at a surprisingly stable rate for up to 40 minutes | – |
| OC[C@H]1O[C@H](O[C@]2(CCl)O[C@H](CCl)[C@@H](O)[C@@H]2O)[C@H](O)[C@@H](O)[C@H]1Cl [sucralose] | – | remains remarkably stable for at least until 20 minutes | diminishes rapidly almost immediately |
